# Laboratory results reported in US4767624A, “Decubital remedy” (priority 1985, dated 1988).
# Like-named read-outs stand apart in the source and are kept apart here.
# How the values were obtained:
# [1] = cited from earlier work
# [2] = system: heart muscle; details: ischemic state; cited from earlier work
# [3] = system: skin; assay: Primary cutaneous irritation; type: in vivo
# [4] = system: Wistar rats; assay: Subacute oral toxicity, rats; type: in vivo; details: oral, 40, 200 and 1,000 mg/kg/day, 5 weeks
# Protocol: (§1) Ubidecarenone was continuously and orally administered to male and female Wistar rats at doses of 40, 200 and 1,000 mg/kg/day for 5 weeks and to male and female rabbits at doses of 60 and 600 mg/kg/day for 23 days.
# [5] = Phototoxicity; type: in vivo; details: 1% and 10% in squalane
# [6] = Blepharo-irritation; type: in vivo; details: 1% in squalane
# [7] = Optical challenge (Adjuvante & strip method); type: in vivo; details: induction 10% acetone
# Source text: |(Adjuvante & strip method)
# [8] = system: skin; assay: Patch test; type: in vivo; details: 1% in squalane
# [9] = system: skin; assay: Cumulative irritation; type: in vivo; details: 1% in squalane
# [10] = Stability upon cutaneous administration; type: physicochemical
# [11] = system: radiation dermatitis or radiation ulcers; details: previous trial use, publications (1) and (2); cited from earlier work
# [12] = Challenge (Adjuvante & patch method); type: in vivo; details: induction 5% acetone
# Source text: Challenge Induction: 5% acetone
# (Adjuvante & patch method)
# [13] = system: rabbits; assay: Subacute oral toxicity, rabbits; type: in vivo; details: 60 and 600 mg/kg/day, 23 days
# Protocol: as §1
structure (smiles),measurement,setting,value
COC1=C(OC)C(=O)C(C/C=C(\C)CC/C=C(\C)CC/C=C(\C)CC/C=C(\C)CC/C=C(\C)CC/C=C(\C)CC/C=C(\C)CC/C=C(\C)CC/C=C(\C)CCC=C(C)C)=C(C)C1=O [Ubidecarenone],solubility,[1]; methanol,scarcely soluble
same,solubility,[1]; oil,oil-soluble
same,solubility,[1]; water,scarcely soluble
same,damage of ischemic cardiac muscular tissue,[2],reduce the damage
same,percent oxygen utilization in heart muscle,[2],improve the percent oxygen utilization in heart muscle
same,Primary cutaneous irritation,[3]; 1% in squalane,0.1
same,"Primary cutaneous irritation, conclusion",[3]; 1% in squalane,low skin irritation
same,irritation to the skin,"[3]; cutaneous administration, summary of Table 1",low irritation to the skin
same,"difference from controls in general conditions, blood test, urine test and morphological observation",[4],Neither rats nor rabbits developed any difference compared with their respective controls
same,"Phototoxicity, conclusion",[5],low phototoxicity
same,"Blepharo-irritation, conclusion",[6],low blepharo-irritation
same,Optical challenge,[7]; 0.5% in acetone,0/5
same,"Optical challenge, conclusion",[7]; 0.5-10% in acetone,low optical challenge
same,Optical challenge,[7]; 1% in acetone,0/5
same,Optical challenge,[7]; 2% in acetone,0/5
same,Optical challenge,[7]; 5% in acetone,0/5
same,Optical challenge,[7]; 10% in acetone,0/5
same,Patch test,[8],0/54
same,"Patch test, conclusion",[8],low skin irritation
same,Cumulative irritation,[9],0.3
same,"Cumulative irritation, conclusion",[9],low skin irritation
same,stability upon cutaneous administration,[10],good stability
same,effectiveness in radiation dermatitis or radiation ulcers,[11],superb effectiveness
same,Challenge,[12]; 1% in acetone,0/10
same,"Challenge, conclusion",[12]; 5% and 1% in acetone,low challenge
same,Challenge,[12]; 5% in acetone,0/10
same,"difference from controls in general conditions, blood test, urine test and morphological observation",[13],Neither rats nor rabbits developed any difference compared with their respective controls
